Assay results published in ChEMBL document CHEMBL4007424, “Design and Synthesis of Enantiomerically Pure Decahydroquinoxalines as Potent and Selective κ-Opioid Receptor Agonists with Anti-Inflammatory Activity in Vivo” (J Med Chem, 2017).

Columns and labels:
[1] = target: T1, Kappa-type opioid receptor (Homo sapiens, UniProt P41145); assay: Agonist activity at recombinant human kappa-type opioid receptor expressed in HEK293 cells at 1 uM after 30 mins by [35S]GTPgammaS binding assay; type: functional, cell-based
T1 sequence (P41145 whole entry): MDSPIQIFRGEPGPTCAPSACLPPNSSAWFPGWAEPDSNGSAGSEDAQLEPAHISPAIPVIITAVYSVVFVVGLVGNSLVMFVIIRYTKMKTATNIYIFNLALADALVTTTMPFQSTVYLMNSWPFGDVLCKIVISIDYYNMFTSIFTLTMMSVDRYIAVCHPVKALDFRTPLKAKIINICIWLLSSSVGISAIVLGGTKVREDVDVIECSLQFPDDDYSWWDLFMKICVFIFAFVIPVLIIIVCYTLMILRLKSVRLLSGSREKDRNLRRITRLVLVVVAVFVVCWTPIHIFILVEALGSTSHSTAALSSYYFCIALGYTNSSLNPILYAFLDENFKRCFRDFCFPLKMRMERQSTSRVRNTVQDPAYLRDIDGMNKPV

[2] = target: Mu-type opioid receptor (Cavia porcellus) (UniProt P97266); assay: Displacement of [3H]DAMGO from mu-type opioid receptor in guinea pig brain membranes at 1 uM after 120 mins by solid scintillation counting; type: cell membranes; conditions: Membrane
Mu-type opioid receptor (Cavia porcellus), sequence (P97266 whole entry): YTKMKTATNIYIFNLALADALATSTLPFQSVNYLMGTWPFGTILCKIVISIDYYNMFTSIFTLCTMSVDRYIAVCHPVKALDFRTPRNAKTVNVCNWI

[3] = organism: Rattus norvegicus; assay: Displacement of [3H]-DTG from sigma 2 receptor in rat liver membranes at 1 uM after 120 mins by scintillation counting; type: cell membranes; conditions: Membrane
[4] = target: Sigma non-opioid intracellular receptor 1 (Cavia porcellus) (UniProt Q60492); assay: Displacement of [3H]-(+)-pentazocine from sigma1-type […] receptor in guinea pig cortex membranes at 1 uM after 120 mins by solid scintillation counting; type: cell membranes
Sigma non-opioid intracellular receptor 1 (Cavia porcellus), sequence (Q60492 whole entry): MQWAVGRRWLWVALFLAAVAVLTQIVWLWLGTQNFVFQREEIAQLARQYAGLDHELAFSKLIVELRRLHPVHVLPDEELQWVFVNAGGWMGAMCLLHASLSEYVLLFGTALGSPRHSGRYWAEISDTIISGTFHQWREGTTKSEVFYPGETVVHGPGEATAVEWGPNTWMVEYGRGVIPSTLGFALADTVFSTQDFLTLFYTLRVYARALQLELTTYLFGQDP

[5] = organism: Sus scrofa; assay: Displacement of [3H]-(+)-MK 801 from PCP binding site of NMDA receptor in pig brain cortex membranes at 10 uM after 120 mins by solid scintillation counting; type: cell membranes
[6] = target: T1, Kappa-type opioid receptor; assay: Agonist activity at recombinant human kappa-type opioid receptor expressed in HEK293 cells after 30 mins by [35S]GTPgammaS binding assay; type: functional, cell-based
[7] = target: Kappa-type opioid receptor (Cavia porcellus, UniProt P41144); assay: Displacement of [3H]U-69,593 from kappa-type opioid receptor in guinea pig brain membranes after 120 mins by solid scintillation counting; type: cell membranes, Membrane
Kappa-type opioid receptor (Cavia porcellus, UniProt P41144), sequence (P41144 whole entry): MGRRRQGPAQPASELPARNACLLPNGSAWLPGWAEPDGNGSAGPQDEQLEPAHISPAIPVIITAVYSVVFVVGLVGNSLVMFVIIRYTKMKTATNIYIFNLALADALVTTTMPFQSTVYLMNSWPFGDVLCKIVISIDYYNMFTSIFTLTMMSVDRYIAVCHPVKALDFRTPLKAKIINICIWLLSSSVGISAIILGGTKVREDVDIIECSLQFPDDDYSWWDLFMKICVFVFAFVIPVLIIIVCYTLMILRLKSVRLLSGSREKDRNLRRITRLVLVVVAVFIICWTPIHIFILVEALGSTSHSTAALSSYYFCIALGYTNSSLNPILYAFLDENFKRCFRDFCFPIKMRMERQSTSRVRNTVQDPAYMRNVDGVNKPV

[8] = test system: Mus musculus; assay: Antiinflammatory activity in arachidonic acid-induced ear dermatitis ICR mouse model assessed as reduction in ear swelling at 0.3 mg administered twice tropically 30 mins prior and 15 mins after arachidonic acid addition measured 60 mins post arachidonic acid challenge relative to control; type: functional
[9] = test system: Mus musculus; assay: Antiinflammatory activity in arachidonic acid-induced ear dermatitis ICR mouse model assessed as reduction in ear swelling at 0.1 mg administered twice tropically 30 mins prior and 15 mins after arachidonic acid addition measured 60 mins post arachidonic acid challenge relative to control; type: functional
[10] = test system: Mus musculus; assay: Antiinflammatory activity in arachidonic acid-induced ear dermatitis ICR mouse model assessed as reduction in ear swelling at 1 mg administered twice tropically 30 mins prior and 15 mins after arachidonic acid addition measured 60 mins post arachidonic acid challenge relative to control; type: functional
[11] = Displacement of [3H]DPDPE from delta-type opioid receptor in guinea pig brain membranes after 120 mins by solid scintillation counting; type: cell membranes, Cavia porcellus, Membrane
[12] = test system: Mus musculus; assay: Antiinflammatory activity in arachidonic acid-induced ear dermatitis ICR mouse model assessed as reduction in ear swelling at 3 mg administered twice tropically 30 mins prior and 15 mins after arachidonic acid addition measured 60 mins post arachidonic acid challenge relative to control; type: functional
[13] = target: Mu-type opioid receptor (Cavia porcellus, UniProt P97266); assay: Displacement of [3H]DAMGO from mu-type opioid receptor in guinea pig brain membranes after 120 mins by solid scintillation counting; type: cell membranes, Membrane
Mu-type opioid receptor, sequence (P97266 whole entry): as the sequence (P97266 whole entry) above

[14] = Plasma concentration in Wistar Han rat at 5 mg/kg, iv measured 0.25 hrs post compound administration; type: ADME, organism-based
[15] = Drug level in Wistar Han rat brain at 5 mg/kg, iv measured 1 hr post compound administration; type: ADME, organism-based; conditions: read-out: Drug uptake
[16] = test system: Rattus norvegicus; assay: Toxicity in Wistar Han rat assessed as assessed as clinical signs changes at 5 mg/kg, iv after 1 hr; type: organism-based; conditions: in vivo
[17] = Plasma concentration in Wistar Han rat at 5 mg/kg, iv measured 1 hr post compound administration; type: ADME, organism-based
[18] = Ratio of drug level in brain to plasma in Wistar Han rat at 5 mg/kg, iv after 1 hr; type: ADME, organism-based; conditions: read-out: BPR

CC(C)NC(=O)N1CCN(C(=O)Cc2ccc(Cl)c(Cl)c2)[C@@H]2[C@@H](N3CCCC3)CCC[C@@H]21 [listing 1 of 2 here]
Activity [1]: 100% | inhibition [2]: 0% | inhibition [3]: 0% | inhibition [4]: 0% | inhibition [5]: 0%

CS(=O)(=O)N1CCN(C(=O)Cc2ccc(F)c(Cl)c2)[C@@H]2[C@@H](N3CC[C@H](O)C3)CCC[C@@H]21
EC50 [6]: 5.9 nM | Ki [7]: 1.7 nM | inhibition (INH) [8]: 43% | inhibition (INH) [9]: 22% | inhibition (INH) [10]: 56% | Ki [11]: 575 nM | inhibition (INH) [12]: 69%

CS(=O)(=O)N1CCN(C(=O)Cc2ccc(Cl)c(Cl)c2)[C@@H]2[C@@H](N3CCCC3)CCC[C@@H]21
Activity [1]: 106% | inhibition [3]: 5% | inhibition [4]: 0% | inhibition [5]: 0%

O=C(Cc1ccc(Cl)c(Cl)c1)N1CCN[C@H]2CCC[C@H](N3CCCC3)[C@H]21
inhibition [3]: 0% | inhibition [5]: 0%

COC(=O)N1CCN(C(=O)Cc2ccc(Cl)c(F)c2)[C@@H]2[C@@H](N3CC[C@H](O)C3)CCC[C@@H]21
EC50 [6]: 3.9 nM | Ki [7]: 1.8 nM | inhibition (INH) [8]: 37% | inhibition (INH) [9]: 2% | inhibition (INH) [10]: 59% | Ki [11]: 250 nM | inhibition (INH) [12]: 68% | Ki [13]: 551 nM

COC(=O)N1CCN(C(=O)Cc2cccc(Cl)c2)[C@@H]2[C@@H](N3CC[C@H](O)C3)CCC[C@@H]21
EC50 [6]: 15 nM | Ki [7]: 1.7 nM | inhibition (INH) [8]: 12% | inhibition (INH) [9]: -15% | inhibition (INH) [10]: 44% | Ki [11]: 1120 nM | inhibition (INH) [12]: 55% | Ki [13]: 512 nM

CC(C)NC(=O)N1CCN(C(=O)Cc2ccc(Cl)c(Cl)c2)[C@@H]2[C@@H](N3CCCC3)CCC[C@@H]21 [listing 2 of 2 here]
EC50 [6]: 4.5 nM | Ki [7]: 2.5 nM | Ki [11]: 237 nM

CS(=O)(=O)N1CCN(C(=O)Cc2ccc(Cl)c(F)c2)[C@@H]2[C@@H](N3CC[C@H](O)C3)CCC[C@@H]21
EC50 [6]: 8 nM | Ki [7]: 2.1 nM | inhibition (INH) [8]: 43% | inhibition (INH) [9]: 33% | inhibition (INH) [10]: 46% | Ki [11]: 394 nM | inhibition (INH) [12]: 71% | Ki [13]: 308 nM

COC(=O)N1CCN(C(=O)Cc2ccc(Cl)c(F)c2)[C@@H]2[C@@H](N3CC[C@H](O)C3)CCC[C@@H]21.Cl
concentration at 0.25 h [14]: 1350 ng/mL | concentration at 1 h [15]: 66.2 ng/g | Activity [16]: Non-Toxic | concentration at 1 h [17]: 546 ng/mL | Kp at 1 h [18]: 0.12

COC(=O)N1CCN(C(=O)Cc2ccc(C(F)(F)F)c(Cl)c2)[C@@H]2[C@@H](N3CC[C@H](O)C3)CCC[C@@H]21
Activity [1]: 100% | inhibition [3]: 5% | inhibition [4]: 30% | inhibition [5]: 0%

CS(=O)(=O)N1CCN(C(=O)Cc2ccc(Cl)c(Cl)c2)[C@@H]2[C@@H](N3CC[C@H](O)C3)CCC[C@@H]21.Cl
concentration at 0.25 h [14]: 4650 ng/mL | concentration at 1 h [15]: 52.3 ng/g | Activity [16]: Non-Toxic | concentration at 1 h [17]: 2170 ng/mL | Kp at 1 h [18]: 0.02

COC(=O)N1CCN(C(=O)Cc2ccc(Cl)c(Cl)c2)[C@@H]2[C@@H](N3CC[C@@H](O)C3)CCC[C@@H]21
Activity [1]: 109% | inhibition [2]: 5% | inhibition [3]: 13% | inhibition [4]: 0% | inhibition [5]: 55%

CN(C)S(=O)(=O)N1CCN(C(=O)Cc2ccc(Cl)c(Cl)c2)[C@@H]2[C@@H](N3CCCC3)CCC[C@@H]21
Activity [1]: 105% | inhibition [3]: 0% | inhibition [4]: 0%

COC(=O)N1CCN(C(=O)Cc2ccc(F)c(Cl)c2)[C@@H]2[C@@H](N3CC[C@H](O)C3)CCC[C@@H]21
EC50 [6]: 2.2 nM | Ki [7]: 0.82 nM | inhibition (INH) [8]: -4% | inhibition (INH) [9]: -12% | inhibition (INH) [10]: 58% | Ki [11]: 61 nM | inhibition (INH) [12]: 66% | Ki [13]: 1300 nM

COC(=O)N1CCN(C(=O)Cc2ccc(Cl)c(Cl)c2)[C@@H]2[C@@H](N(C)C)CCC[C@@H]21
EC50 [6]: 1 nM | Ki [7]: 0.16 nM | Ki [11]: 7.9 nM
